Data on 41 molecules can be found in EP1976513B1 (priority 2006, dated 2007).

Assay [1] concerns the target T1, human dopamine reuptake transporter (Homo sapiens, UniProt Q01959).
T1 construct: expressed in transfected cells; host or cells: CHO-K1 or HEK293
Briefly: cell-based.

The target in assay [2] is human serotonin reuptake transporter (Homo sapiens, UniProt P31645). Briefly: cell-based.
[3] abbreviates: recombinant human dopamine transporter (DAT), read-out: Human IC50 (nM) hDAT.
Setting [4] is: recombinant human serotonin transporter (SERT), read-out: Human IC50 (nM) hSERT.
The mark [5] stands for this setting: Human IC50 (nM) hSERT, recombinant human serotonin transporter (SERT).

Counter-ions that a name gives are not always drawn. Like-named read-outs stand apart in the source and are kept apart here.

T1 sequence (Q01959 whole entry): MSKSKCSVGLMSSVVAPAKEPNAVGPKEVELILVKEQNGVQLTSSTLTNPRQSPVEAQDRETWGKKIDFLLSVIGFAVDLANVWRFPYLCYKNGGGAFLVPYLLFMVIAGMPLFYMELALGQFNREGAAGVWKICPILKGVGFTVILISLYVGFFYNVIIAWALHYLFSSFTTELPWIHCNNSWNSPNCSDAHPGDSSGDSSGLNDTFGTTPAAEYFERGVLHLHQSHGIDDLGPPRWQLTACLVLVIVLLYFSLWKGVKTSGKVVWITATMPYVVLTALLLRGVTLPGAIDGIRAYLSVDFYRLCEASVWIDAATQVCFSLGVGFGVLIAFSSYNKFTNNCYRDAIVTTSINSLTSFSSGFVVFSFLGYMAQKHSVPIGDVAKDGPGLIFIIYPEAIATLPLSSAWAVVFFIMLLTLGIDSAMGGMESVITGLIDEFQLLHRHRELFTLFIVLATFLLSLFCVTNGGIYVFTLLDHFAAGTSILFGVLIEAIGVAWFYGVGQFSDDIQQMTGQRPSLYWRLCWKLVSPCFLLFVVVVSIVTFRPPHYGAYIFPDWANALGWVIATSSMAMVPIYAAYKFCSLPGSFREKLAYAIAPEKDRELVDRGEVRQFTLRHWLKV
Chain of human serotonin reuptake transporter (P31645 whole entry): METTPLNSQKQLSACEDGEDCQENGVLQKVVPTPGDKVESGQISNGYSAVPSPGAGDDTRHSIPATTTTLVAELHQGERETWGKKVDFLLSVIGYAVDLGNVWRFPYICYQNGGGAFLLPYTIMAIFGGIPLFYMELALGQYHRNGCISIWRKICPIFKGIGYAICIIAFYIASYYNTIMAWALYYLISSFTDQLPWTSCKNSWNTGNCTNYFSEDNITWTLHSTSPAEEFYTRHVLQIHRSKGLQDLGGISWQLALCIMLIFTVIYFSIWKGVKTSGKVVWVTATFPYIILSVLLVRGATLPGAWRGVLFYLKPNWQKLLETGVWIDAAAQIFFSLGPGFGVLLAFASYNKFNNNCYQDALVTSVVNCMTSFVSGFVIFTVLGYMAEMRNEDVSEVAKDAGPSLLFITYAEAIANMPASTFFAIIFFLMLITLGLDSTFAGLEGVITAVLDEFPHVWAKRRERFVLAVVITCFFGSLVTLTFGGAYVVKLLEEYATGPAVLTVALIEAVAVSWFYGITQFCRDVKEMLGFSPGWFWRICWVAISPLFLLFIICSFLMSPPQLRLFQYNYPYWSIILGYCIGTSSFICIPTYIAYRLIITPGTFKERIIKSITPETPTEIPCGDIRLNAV

The term IC50 denotes the concentration needed to halve the response being measured. As for `NCC1(c2ccc3ccccc3c2)CC=CCC1` (racemic) [Compound 291, (1-(naphthalen-2-yl)cyclohex-3-enyl)methanamine], the IC50 in assay [1] (setting [3]) worked out at 72 nM; in assay [2] (setting [4]), 185 nM.

Take `CCC1(O)CCC(CN(C)C)(c2ccc(Cl)c(Cl)c2)CC1` (centres unmarked) [Compound 283, 4-(3,4-dichlorophenyl)-4-((dimethylamino)methyl)-1-ethylcyclohexanol]: the IC50 in assay [1] (setting [3]) worked out at 37 nM; in assay [2] (setting [4]), 20 nM.

Turning to `CC(N(C)C)C1(c2cccc3ccccc23)CCCCC1` (single isomer, unassigned) [60 E1, N,N-dimethyl-1-(1-(naphthalen-1-yl)cyclohexyl)ethanamine], the IC50 in assay [1] (setting [3]) amounted to 748 nM; in assay [2] (setting [4]) it was 184 nM.

For `CNCC1(c2ccc(Cl)c(Cl)c2)CCCC1` [Compound 88, (1-(3,4-dichlorophenyl)cyclopentyl)-N-methylmethanamine], the 50% inhibitory concentration (IC50) in assay [1] (setting [3]) amounted to 93 nM; in assay [2] (Human IC50 (nM) hSERT) it was 829 nM.

In the case of `CNC(C)C1(c2ccc(OC(F)(F)F)cc2)CCCCC1` (single isomer, unassigned) [64 E2, N-methyl-1-(1-(4-(trifluoromethoxy)phenyl)cyclohexyl)ethanamine], the IC50 in assay [1] (Human IC50 (nM) hDAT) was found to be 3640 nM; in assay [2] (setting [4]), 32 nM.

As for `CNCC1(c2ccc3c(c2)OCO3)CCC(C)(O)CC1` (centres unmarked) [Compound 241, 4-(benzo[d][1,3]dioxol-5-yl)-1-methyl-4-((methylamino)methyl)cyclohexanol], the half-inhibitory concentration (IC50) in assay [1] (setting [3]) and in assay [2] (setting [4]) was more than 10000 nM each time.

Regarding `NCC1(c2ccc(Cl)c(Cl)c2)CCC(F)(F)CC1` [Compound 267, (1-(3,4-dichlorophenyl)-4,4-difluorocyclohexyl)methanamine], the IC50 in assay [1] (setting [3]) amounted to 147 nM; in assay [2] (setting [4]), 1290 nM.

As for `NCC1(c2cccc(C(F)(F)F)c2)CCCCC1` [Compound 36, (1-(3-(trifluoromethyl)phenyl)-cyclohexyl)methanamine], the IC50 in assay [1] (setting [3]) was more than 10000 nM; in assay [2] (setting [5]), 6550 nM.

In the case of `CC(N)C1(c2ccc(-c3ccoc3)cc2)CCCCC1` (centres unmarked) [Compound 20, 1-(1-(4-(furan-3-yl)phenyl)cyclohexyl)ethanamine], the figures for the IC50 in assay [1] (setting [3]) and in assay [2] (setting [4]) were 275 nM and 24 nM, respectively.

In the case of `CN(C)CC1(c2ccc3c(c2)OCO3)CCC(C)(O)CC1` (centres unmarked) [Compound 240, 4-(benzo[d][1,3]dioxol-5-yl)-4-((dimethylamino)methyl)-1-methylcyclohexanol], the 50% inhibitory concentration (IC50) in assay [1] (setting [3]) worked out at 9030 nM; in assay [2] (setting [4]), 1810 nM.

For the molecule `NCC1(c2ccc(Cl)c(F)c2)CCCCC1` [Compound 98, (1-(4-chloro-3-fluorophenyl)cyclohexyl)-methanamine], the half-maximal inhibitory concentration (IC50) is 419 nM in assay [1] (setting [3]) and more than 10000 nM in assay [2] (setting [5]).

For `CN(C)CC1(c2ccc3c(c2)OCO3)CCC(O)CC1` (centres unmarked) [Compound 238, 4-(benzo[d][1,3]dioxol-5-yl)-4-((dimethylamino)methyl)cyclohexanol], the half-maximal inhibitory concentration (IC50) turned out to be 5720 nM in assay [1] (setting [3]) and 1180 nM in assay [2] (setting [4]).

Consider `CN(C)CC1(c2ccc3ccccc3c2)CCC(O)(CF)CC1` (centres unmarked) [Compound 246, 4-((dimethylamino)methyl)-1-(fluoromethyl)-4-(naphthalen-2-yl)cyclohexanol], for which the 50% inhibitory concentration (IC50) in assay [1] (setting [3]) was determined as 282 nM; in assay [2] (setting [4]), 43 nM.

As to `CN(C)CC1(c2ccc3ccccc3c2)CCC(O)CC1` (centres unmarked) [Compound 228, 4-((dimethylamino)methyl)-4-(naphthalen-2-yl)cyclohexanol], the IC50 in assay [1] (read-out: Human IC50 (nM) hDAT) was determined as 1560 nM; in assay [2] (setting [4]) it was 96 nM.

Turning to `CC(N)C1(c2ccc(-c3ccoc3)cc2)CCCCC1` (single isomer, unassigned) [20 E2, 1-(1-(4-(furan-3-yl)phenyl)cyclohexyl)ethanamine], the IC50 amounted to 437 nM in assay [1] (setting [3]) and 60 nM in assay [2] (setting [4]).

Take `CN(C)CC1(c2ccc3ccccc3c2)CCC(F)CC1` (centres unmarked) [Compound 233, 1-(4-fluoro-1-(naphthalen-2-yl)cyclohexyl)-N,N-dimethylmethanamine]: the IC50 in assay [1] (setting [3]) was 3 nM; in assay [2] (setting [4]), 37 nM.

In the case of `NCC1(c2ccc(Cl)c(Cl)c2)CCCC(F)(F)C1` (centres unmarked) [Compound 204, (1-(3,4-dichlorophenyl)-3,3-difluorocyclohexyl)-methanamine], the IC50 in assay [1] (setting [3]) turned out to be 296 nM; in assay [2] (setting [5]) it was 2250 nM.

Consider `CNCC1(c2ccc(F)c3ccccc23)CCCCC1` [Compound 69, 1-(1-(4-fluoronaphthalen-1-yl)cyclohexyl)-N-methylmethanamine], for which the IC50 in assay [1] (setting [3]) was found to be 605 nM; in assay [2] (setting [4]), 930 nM.

With `CNCC1(c2ccc(Cl)c(Cl)c2)CCC(=O)CC1` [Compound 289, 4-(3,4-Dichloro-phenyl)-4-methylaminomethyl-cyclohexanone], the figures for the IC50 in assay [1] (setting [3]) and in assay [2] (setting [4]) were 282 nM and 469 nM, respectively.

Regarding `CCC(N(C)C)C1(c2ccc(Cl)c(Cl)c2)CCCCC1` (single isomer, unassigned) [61 E2, 1-(1-(3,4-dichlorophenyl)cyclohexyl)-N,N-dimethylpropan-1-amine], the values for the IC50 in assay [1] (setting [3]) and in assay [2] (setting [5]) were 116 nM and 9440 nM, respectively.

Regarding `CNCC1(c2ccc(OC)cc2)CCCCC1O` (single isomer, unassigned) [139 E2, cis-2-((methylamino)methyl)-2-(4-methoxyphenyl)cyclohexanol], the concentration for half-maximal inhibition (IC50) in assay [1] (setting [3]) and in assay [2] (setting [4]) was more than 10000 nM each time.

Turning to `CNCC1(c2ccc(Cl)cc2Cl)CCCCC1` [Compound 65, 1-(1-(2,4-dichlorophenyl)cyclohexyl)-N-methylmethanamine], the figures for the IC50 in assay [1] (setting [3]) and in assay [2] (setting [5]) were 1940 nM and 1620 nM, respectively.

With `CNCC1(c2ccc3c(c2)OCO3)CCC(C)(O)CC1` (centres unmarked) [Compound 239, 4-(benzo[d][1,3]dioxol-5-yl)-1-methyl-4-((methylamino)methyl)cyclohexanol], the IC50 was found to be 9450 nM in assay [1] (setting [3]) and 8660 nM in assay [2] (setting [4]).

Turning to `NCC1(c2ccc(Cl)cc2)CCCCC1` [Compound 29, (1-(4-chlorophenyl)cyclohexyl)methanamine hydrochloride], the IC50 worked out at 195 nM in assay [1] (setting [3]) and 5240 nM in assay [2] (setting [4]).

`NCC1(c2ccc3cc(F)ccc3c2)CCCCC1` [Compound 39, (1-(6-fluoronaphthalen-2-yl)cyclohexyl)methanamine]: the values for the half-maximal inhibitory concentration (IC50) in assay [1] (setting [3]) and in assay [2] (setting [4]) were 2240 nM and 295 nM, respectively.

Take `CNCC1(c2ccc(F)cc2)CCCCC1` [Compound 90, 1-(1-(4-fluorophenyl)cyclohexyl)-N-methylmethanamine]: the IC50 in assay [1] (setting [3]) stood at 3360 nM; in assay [2] (setting [5]) it was 839 nM.

On to `COC1CCC(CN)(c2ccc(Cl)c(Cl)c2)CC1` (centres unmarked) [Compound 255, (1-(3,4-dichlorophenyl)-4-methoxycyclohexyl)methanamine], for which the IC50 in assay [1] (setting [3]) is 170 nM; in assay [2] (setting [4]), 1420 nM.

As to `CN(C)CC1(c2ccc3ccccc3c2)CCC(O)(CF)CC1` (centres unmarked) [Compound 244, 4-((dimethylamino)methyl)-1-(fluoromethyl)-4-(naphthalen-2-yl)cyclohexanol], the IC50 is 334 nM in assay [1] (setting [3]) and 14 nM in assay [2] (setting [4]).

`NCC1(c2ccc(F)cc2)CCCCC1` [Compound 91, (1-(4-fluorophenyl)cyclohexyl)methaneamine]: the half-inhibitory concentration (IC50) in assay [1] (setting [3]) was 1830 nM; in assay [2] (setting [5]), more than 10000 nM.

Consider `CNCC1(c2ccc3ccccc3c2)CCC(C)(O)CC1` (centres unmarked) [Compound 222, 1-methyl-4-((methylamino)methyl)-4-(naphthalen-2-yl)-cyclohexanol], for which the results for the IC50 in assay [1] (read-out: Human IC50 (nM) hDAT) and in assay [2] (setting [4]) were 2090 nM and 609 nM, respectively.

Consider `CN(C)CC1(c2ccc3ccccc3c2)CCC(O)CC1` (centres unmarked) [Compound 229, 4-((dimethylamino)methyl)-4-(naphthalen-2-yl)cyclohexanol], for which the half-maximal inhibitory concentration (IC50) in assay [1] (read-out: Human IC50 (nM) hDAT) turned out to be 40 nM; in assay [2] (setting [4]), 11 nM.

On to `NCC1(c2ccc3ccccc3c2)CCC(F)CC1` (centres unmarked) [Compound 213, (4-fluoro-1-(naphthalen-2-yl)cyclohexyl)methanamine], for which the values for the concentration for half-maximal inhibition (IC50) in assay [1] (setting [3]) and in assay [2] (setting [4]) were 337 nM and 283 nM, respectively.

`CN(C)CC1(c2ccc(Cl)cc2Cl)CCCCC1` [Compound 66, 1-(1-(2,4-dichlorophenyl)cyclohexyl)-N,N-dimethylmethanamine]: the IC50 in assay [1] (setting [3]) was 355 nM; in assay [2] (setting [5]), 221 nM.

Regarding `NCC1(c2ccc3ccccc3c2)CCC(Cl)CC1` (centres unmarked) [Compound 211, (4-chloro-1-(naphthalen-2-yl)cyclohexyl)methanamine], the IC50 in assay [1] (setting [3]) was 195 nM; in assay [2] (setting [4]), 55 nM.

As for `NCC1(c2ccc3ccccc3c2)CCC(F)(F)CC1` [Compound 221, (4,4-difluoro-1-(naphthalen-2-yl)cyclohexyl)methanamine], the IC50 came to 182 nM in assay [1] (setting [3]) and 61 nM in assay [2] (setting [4]).

As to `NCC1(c2ccc(C(F)(F)F)cc2)CCCCC1` [Compound 34, (1-(4-(trifluoromethyl)phenyl)-cyclohexyl)methanamine], the IC50 was 5320 nM in assay [1] (setting [3]) and more than 10000 nM in assay [2] (setting [5]).

In the case of `CC(N(C)C)C1(c2ccc(OC(F)(F)F)cc2)CCCCC1` (single isomer, unassigned) [63 E2, N,N-dimethyl-1-(1-(4-(trifluoromethoxy)phenyl)cyclohexyl)ethanamine], the values for the concentration for half-maximal inhibition (IC50) in assay [1] (setting [3]) and in assay [2] (setting [4]) were 1820 nM and 2 nM, respectively.

Regarding `NCC1(c2ccc(Cl)c(Cl)c2)CCCC1` [Compound 87, (1-(3,4-dichlorophenyl)cyclopentyl)methanamine], the 50% inhibitory concentration (IC50) in assay [1] (setting [3]) turned out to be 139 nM; in assay [2] (setting [5]) it was 1470 nM.

Turning to `NCC1(c2cccc(F)c2)CCCCC1` [Compound 37, (1-(3-fluorophenyl)cyclohexyl)methanamine], the half-inhibitory concentration (IC50) in assay [1] (setting [3]) and in assay [2] (setting [5]) was more than 10000 nM in each case.

Regarding `CNC(C)C1(c2cccc3ccccc23)CCCCC1` (single isomer, unassigned) [59 E1, N-methyl-1-(1-(naphthalen-1-yl)cyclohexyl)ethanamine], the half-maximal inhibitory concentration (IC50) in assay [1] (setting [3]) turned out to be 1750 nM.

In the case of `NCC1(c2ccc(Cl)c(Cl)c2)CCC(F)CC1` (centres unmarked) [Compound 260, (1-(3,4-dichlorophenyl)-4-fluorocyclohexyl)methanamine], the concentration for half-maximal inhibition (IC50) in assay [1] (setting [3]) was found to be 306 nM.
